pIC50: −log10 of the molar value.
What was measured:
human CRF1 receptor = target: T1, human CRF1 receptor (Homo sapiens, UniProt P34998); assay: Measurement of CRF Binding Inhibitory Rate (receptor binding experiment with 125I-CRF); settings: human CRF1 receptor expressing CHO cellular membrane fraction, 50 pM 125I-CRF, room temperature 1.5 hr, 0.05 nM to 10 μM of compound; read-out: IC50 values (CRF binding inhibition)
T1 construct: expressed in transfected cells; host or cells: CHO cells (membrane fraction)
T1 sequence (P34998 24-415): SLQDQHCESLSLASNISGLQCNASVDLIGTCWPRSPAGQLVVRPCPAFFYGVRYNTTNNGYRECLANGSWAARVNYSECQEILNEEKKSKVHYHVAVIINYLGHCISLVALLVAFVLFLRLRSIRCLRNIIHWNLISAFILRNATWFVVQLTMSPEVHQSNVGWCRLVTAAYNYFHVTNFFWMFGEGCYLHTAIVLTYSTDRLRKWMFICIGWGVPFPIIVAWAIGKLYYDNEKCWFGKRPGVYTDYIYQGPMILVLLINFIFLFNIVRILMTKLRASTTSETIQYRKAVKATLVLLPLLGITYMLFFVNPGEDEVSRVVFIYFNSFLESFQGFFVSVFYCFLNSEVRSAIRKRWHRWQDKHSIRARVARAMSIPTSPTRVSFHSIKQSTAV

Row | Structure (SMILES) | melting point | pIC50 (human CRF1 receptor)
1 | CCC(OC(=O)C1CC1)c1ccc(Cl)c2nc3n(c12)CCCN3c1ccc(OC)nc1C (stereo not drawn) [Example 268, 1-[9-Chloro-1-(6-methoxy-2-methylpyridin-3-yl)-1,2,3,4-tetrahydropyrimido[1,2-a]benzimidazol-6-yl]propyl cyclopropanecarboxylate] | 149 to 151 °C | > 6.00
2 | CCOC(CC)c1ccc(Cl)c2nc3n(c12)CCCN3c1ccc(OC)nc1C (stereo not drawn) [Example 269, 9-Chloro-6-(1-ethoxypropyl)-1-(6-methoxy-2-methylpyridin-3-yl)-1,2,3,4-tetrahydropyrimido[1,2-a]benzimidazole] | 174 to 176 °C | > 6.00
3 | CCC(OCC(F)(F)F)c1ccc(Cl)c2nc3n(c12)CCCN3c1ccc(OC)nc1C (stereo not drawn) [Example 272, 9-Chloro-1-(6-methoxy-2-methylpyridin-3-yl)-6-[1-(2,2,2-trifluoroethoxy)propyl]-1,2,3,4-tetrahydropyrimido[1,2-a]benzimidazole] | 124 to 126 °C | > 6.00
4 | CCC(OCC(F)F)c1ccc(Cl)c2nc3n(c12)CCCN3c1ccc(OC)nc1C (stereo not drawn) [Example 273, 9-Chloro-6-[1-(2,2-difluoroethoxy)propyl]-1-(6-methoxy-2-methylpyridin-3-yl)-1,2,3,4-tetrahydropyrimido[1,2-a]benzimidazole] | 130 to 132 °C | > 6.00
5 | COc1ccc(N2CCCn3c2nc2c(Cl)ccc(C(O)(C4CC4)C4CC4)c23)c(C)n1 [Example 276, [9-Chloro-1-(6-methoxy-2-methylpyridin-3-yl)-1,2,3,4-tetrahydropyrimido[1,2-a]benzimidazol-6-yl](dicyclopropyl)methanol] | 208 to 210 °C | > 6.00
6 | COc1ccc(N2CCCn3c2nc2c(Cl)ccc(C(OCC(F)(F)F)C4CC4)c23)c(C)n1 (stereo not drawn) [Example 277, 9-Chloro-6-[cyclopropyl (2,2,2-trifluoroethoxy)methyl]1-(6-methoxy-2-methylpyridin-3-yl)-1,2,3,4-tetrahydropyrimido[1,2-a]benzimidazole] | 158 to 160 °C | > 6.00
7 | COc1ccc(N2CCCn3c2nc2c(Cl)ccc(C(OCC(F)F)C4CC4)c23)c(C)n1 (stereo not drawn) [Example 278, 9-Chloro-6-[cyclopropyl(2,2-difluoroethoxy)methyl]-1-(6-methoxy-2-methylpyridin-3-yl)-1,2,3,4-tetrahydropyrimido[1,2-a]benzimidazole] | 124 to 126 °C | > 6.00
8 | COc1ccc(N2CCCn3c2nc2c(Cl)ccc(C(OC)C(F)(F)F)c23)c(C)n1 (stereo not drawn) [Example 280, 9-Chloro-1-(6-methoxy-2-methylpyridin-3-yl)-6-(2,2,2-trifluoro-1-methoxyethyl)-1,2,3,4-tetrahydropyrimido[1,2-a]benzimidazole] | 144 to 146 °C | > 6.00
9 | CCCOc1ccc(N2CCCn3c2nc2c(Cl)ccc(C(OC(F)F)C(F)(F)F)c23)c(C)n1 (stereo not drawn) [Example 289, 9-Chloro-6-[1-(difluoromethoxy)-2,2,2-trifluoroethyl]-1-(2-methyl-6-propoxypyridin-3-yl)-1,2,3,4-tetrahydropyrimido[1,2-a]benzimidazole] | 156 to 158 °C | > 6.00
10 | Cc1nc(OC(F)F)ccc1N1CCCn2c1nc1c(Cl)ccc(C(OC(F)F)C(F)(F)F)c12 (stereo not drawn) [Example 290, 9-Chloro-1-[6-(difluoromethoxy)-2-methylpyridin-3-yl]-6-[1-(difluoromethoxy)-2,2,2-trifluoroethyl]-1,2,3,4-tetrahydropyrimido[1,2-a]benzimidazole] | 145 to 148 °C | > 6.00
11 | Cc1nc(C#N)ccc1N1CCCn2c1nc1c(Cl)ccc(C(OC(F)F)C(F)(F)F)c12 (stereo not drawn) [Example 292, 5-{9-Chloro-6-[1-(difluoromethoxy)-2,2,2-trifluoroethyl]-3,4-dihydropyrimido[1,2-a]benzimidazol-1(2H)-yl}-6-methylpyridine-2-carbonitrile] | 177 to 180 °C | > 6.00
12 | Cc1nc(N(C)C)ccc1N1CCCn2c1nc1c(Cl)ccc(C(OC(F)F)C(F)(F)F)c12 (stereo not drawn) [Example 298, 5-{9-Chloro-6-[1-(difluoromethoxy)-2,2,2-trifluoroethyl]-3,4-dihydropyrimido[1,2-a]benzimidazol-1(2H)-yl}-N,N,6-trimethylpyridin-2-amine] | 233 to 235 °C | > 6.00
13 | CCC(F)c1ccc(Cl)c2nc3n(c12)CCCN3c1ccc(Cl)cc1Cl (stereo not drawn) [Example 304, 9-Chloro-1-(2,4-dichlorophenyl)-6-(1-fluoropropyl)-1,2,3,4-tetrahydropyrimido[1,2-a]benzimidazole] | 172 to 174 °C | > 6.00
14 | CCC(OC1CC1)c1ccc(Cl)c2nc3n(c12)CCCN3c1ccc(Cl)cc1Cl (stereo not drawn) [Example 306, 9-Chloro-6-[1-(cyclopropyloxy)propyl]-1-(2,4-dichlorophenyl)-1,2,3,4-tetrahydropyrimido[1,2-a]benzimidazole] | 147 to 149 °C | > 6.00
15 | FC(F)(F)C(OC1CC1)c1ccc(Cl)c2nc3n(c12)CCCN3c1ccc(Cl)cc1Cl (stereo not drawn) [Example 308, 9-Chloro-6-[1-(cyclopropyloxy)-2,2,2-trifluoroethyl]-1-(2,4-dichlorophenyl)-1,2,3,4-tetrahydropyrimido[1,2-a]benzimidazole] | 197 to 200 °C | > 6.00
16 | COC(c1ccc(Cl)c2nc3n(c12)CCCN3c1ccc(Cl)cc1Cl)C(F)(F)F (stereo not drawn) [Example 309, 9-Chloro-1-(2,4-dichlorophenyl)-6-(2,2,2-trifluoro-1-methoxyethyl)-1,2,3,4-tetrahydropyrimido[1,2-a]benzimidazole] | 161 to 163 °C | > 6.00
17 | CCOC(c1ccc(Cl)c2nc3n(c12)CCCN3c1ccc(Cl)cc1Cl)C(F)(F)F (stereo not drawn) [Example 310, 9-Chloro-1-(2,4-dichlorophenyl)-6-(1-ethoxy-2,2,2-trifluoroethyl)-1,2,3,4-tetrahydropyrimido[1,2-a]benzimidazole] | 129 to 131 °C | > 6.00
18 | CC(=O)OC(c1ccc(Cl)c2nc3n(c12)CCCN3c1ccc(Cl)cc1Cl)C(F)(F)F (stereo not drawn) [Example 311, 1-[9-Chloro-1-(2,4-dichlorophenyl)-1,2,3,4-tetrahydropyrimido[1,2-a]benzimidazol-6-yl]-2,2,2-trifluoroethyl acetate] | 197 to 199 °C | > 6.00
19 | Clc1ccc(N2CCCn3c2nc2c(Cl)ccc(N(C4CC4)C4CC4)c23)c(Cl)c1 [Example 320, 9-Chloro-N,N-dicyclopropyl-1-(2,4-dichlorophenyl)-1,2,3,4-tetrahydropyrimido[1,2-a]benzimidazol-6-amine] | 211 to 213 °C | > 6.00
20 | Cc1cc(C#N)ccc1N1CCCn2c1nc1c(Cl)ccc(C(OC(F)F)C(F)(F)F)c12 (stereo not drawn) [Example 325, 4-{9-chloro-6-[1-(difluoromethoxy)-2,2,2-trifluoroethyl]-3,4-dihydropyrimido[1,2-a]benzimidazol-1(2H)-yl}-3-methylbenzonitrile] | 195 to 197 °C | > 6.00
21 | CCC(OC(C)=O)c1ccc(Cl)c2nc3n(c12)CCCCN3c1ncc(Cl)cc1Cl (stereo not drawn) [Example 329, 1-[10-Chloro-1-(3,5-dichloropyridin-2-yl)-2,3,4,5-tetrahydro-1H-[1,3]diazepino[1,2-a]benzimidazol-7-yl]propyl acetate] | 158 to 160 °C | > 6.00
22 | CCC(OC(C)=O)c1ccc(Cl)c2nc3n(c12)CCCCN3c1ccc(OC)cc1Cl (stereo not drawn) [Example 334, 1-[10-Chloro-1-(2-chloro-4-methoxyphenyl)-2,3,4,5-tetrahydro-1H-[1,3]diazepino[1,2-a]benzimidazol-7-yl]propyl acetate] | 177 to 179 °C | > 6.00
23 | CCN(CC)c1cc(F)cc2nc3n(c12)CCCN3c1ccc(Cl)cc1Cl [Example 335, 1-(2,4-Dichlorophenyl)-N,N-diethyl-8-fluoro-1,2,3,4-tetrahydropyrimido[1,2-a]benzimidazol-6-amine] | 142 to 145 °C | > 6.00
24 | CCC(CC)c1ccc(Cl)c2nc3n(c12)CCCN3c1cnc(N(C)C)cc1C [Example 336, 5-[9-Chloro-6-(1-ethylpropyl)-3,4-dihydropyrimido[1,2-a]benzimidazol-1(2H)-yl]-N,N,4-trimethylpyridin-2-amine] | 228 to 230 °C | > 6.00
25 | CCC(CC)c1ccc(Cl)c2nc3n(c12)CCCCN3c1cnc(Br)c(C)c1 [Example 338, 1-(6-Bromo-5-methylpyridin-3-yl)-10-chloro-7-(1-ethylpropyl)-2,3,4,5-tetrahydro-1H-[1,3]diazepino[1,2-a]benzimidazole] | 137 to 140 °C | > 6.00
26 | CCC(CC)c1ccc(Cl)c2nc3n(c12)CCCCN3c1ncc(C#N)cc1C [Example 339, 6-[10-Chloro-7-(1-ethylpropyl)-2,3,4,5-tetrahydro-1H-[1,3]diazepino[1,2-a]benzimidazol-1-yl]-5-methylpyridine-3-carbonitrile] | 213 °C | > 6.00
27 | CCC(CC)c1ccc(Cl)c2nc3n(c12)CCCCN3c1ncc(C(N)=O)cc1C [Example 340, 6-[10-Chloro-7-(1-ethylpropyl)-2,3,4,5-tetrahydro-1H-[1,3]diazepino[1,2-a]benzimidazol-1-yl]-5-methylpyridine-3-carboxamide] | 234 to 235 °C | > 6.00

— patent publication US8785460B2, “Tricyclic compounds and use thereof” (Takeda Pharmaceutical Company Limited, priority 2008, dated 2014)
